Measurements taken from patent US3953464A, “Cyclic sulphoximides” (Warner-Lambert Company, priority 1973, dated 1976).

What was measured:
[1] = LD50 (acute toxicity, i.g.); details: in vivo, po, species not given
[2] = antiphlogistic (anti-inflammatory) activity; type: in vivo
Shay Rat = experiment: antisecretory activity (Shay Rat); type: in vivo; details: i.g.
Guinea pig cough = Guinea pig cough (Antitussive); type: in vivo; details: Example 8 250 mg/kg equivalent to 150 mg/kg codeine
analgesic activity = type: in vivo; details: dose not given

| SMILES | LD50 [1] [mg/kg] | Activity: Guinea pig cough (Antitussive), equivalent dose (Guinea pig cough) [mg/kg] | further results |
| --- | --- | --- | --- |
| CCOC(=O)N=C1N=S(=O)(c2ccccc2)c2ccccc21 (stereo not shown) [Example 12, 3-(Ethoxycarbonylimino)-1-phenyl-3H-1,2-benzisothiazole-1-oxide] | 1600 |  | Activity: antiphlogistic (dose) ([2]; dose at which antiphlogistic activity is stated, route and species not given): 250 mg/kg |
| CC(C)C(=O)N=C1N=S(=O)(c2ccccc2)c2ccccc21 (stereo not shown) [Example 7, 3-(Isobutyrylimino)-1-phenyl-3H-1,2-benzisothiazole-1-oxide] | 600 |  | Activity: antisecretory (dose) (Shay Rat): 100 mg/kg |
| COc1ccc2c3c1O[C@H]1[C@@H](O)C=C[C@H]4[C@@H](C2)N(C)CC[C@@]341 [codeine, reference compound] |  | 150 |  |
| CCC(=O)N=C1N=S(=O)(c2ccccc2)c2ccccc21 (stereo not shown) [Example 6, 3-(Propionylimino)-1-phenyl-3H-1,2-benzisothiazole-1-oxide] | 1600 |  | Activity: analgesic (in words) (analgesic activity): analgesic; Activity: antiphlogistic / anti-inflammatory (in words) ([2]; dose not given): Antiphlogistic |
| CS1(=O)=NC(=NC(=O)c2ccccc2O)c2ccccc21 (stereo not shown) [Example 8, 3-(Salicyloylimino)-1-methyl-3H-1,2-benzisothiazole-1-oxide] | 1600 | 250 |  |
